Measured values reported in ChEMBL document CHEMBL4507302, “Data for DCP probe TP-020” (2021).

Assays:
[1] = test system: Epidermal growth factor receptor (Homo sapiens), P00533 [UNDEFINED MUTATION]; details: Compound concentration 1000.0 nM
[2] = target: Tyrosine-protein kinase SYK (Homo sapiens) (UniProt P43405); details: Compound concentration 1000.0 nM
[3] = target: Serine/threonine-protein kinase 33 (Homo sapiens) (UniProt Q9BYT3); details: Compound concentration 1000.0 nM
[4] = target: 5-hydroxytryptamine receptor 7 (Homo sapiens) (UniProt P34969); details: Compound concentration 10.0 uM
[5] = target: Cyclin-dependent kinase 18 (Homo sapiens) (UniProt Q07002); details: Compound concentration 1000.0 nM
[6] = target: Platelet-derived growth factor receptor alpha (Homo sapiens) (UniProt P16234); details: Compound concentration 1000.0 nM
[7] = target: BMP-2-inducible protein kinase (Homo sapiens) (UniProt Q9NSY1); details: Compound concentration 1000.0 nM
[8] = target: Receptor-type tyrosine-protein kinase FLT3 (Homo sapiens) (UniProt P36888); details: Compound concentration 1000.0 nM
[9] = target: Serine/threonine-protein kinase MRCK gamma (Homo sapiens) (UniProt Q6DT37); details: Compound concentration 1000.0 nM
[10] = target: Cyclin-dependent kinase 4 (Homo sapiens) (UniProt P11802); details: Compound concentration 1000.0 nM
[11] = target: Cyclin-dependent kinase 2 (Homo sapiens) (UniProt P24941); details: Compound concentration 1000.0 nM
[12] = target: Membrane-associated tyrosine- and threonine-specific cdc2-inhibitory kinase (Homo sapiens) (UniProt Q99640); details: Compound concentration 1000.0 nM
[13] = target: Ephrin type-A receptor 3 (Homo sapiens) (UniProt P29320); details: Compound concentration 1000.0 nM
[14] = target: Mitogen-activated protein kinase kinase kinase 12 (Homo sapiens) (UniProt Q12852); details: Compound concentration 1000.0 nM
[15] = target: Activin receptor type-1-like (Homo sapiens) (UniProt P37023); details: Compound concentration 1000.0 nM
[16] = test system: Phosphatidylinositol 4,5-bisphosphate 3-kinase catalytic subunit alpha isoform (Homo sapiens), P42336 [E545K]; details: Compound concentration 1000.0 nM
[17] = test system: Tyrosine-protein kinase ABL1 (Homo sapiens), P00519 [F317I]; details: Compound concentration 1000.0 nM
[18] = target: Serine/threonine-protein kinase PAK 3 (Homo sapiens) (UniProt O75914); details: Compound concentration 1000.0 nM
[19] = target: Mitogen-activated protein kinase 10 (Homo sapiens) (UniProt P53779); details: Compound concentration 1000.0 nM
[20] = target: Inhibitor of nuclear factor kappa-B kinase subunit beta (Homo sapiens) (UniProt O14920); details: Compound concentration 1000.0 nM
[21] = target: NUAK family SNF1-like kinase 1 (Homo sapiens) (UniProt O60285); details: Compound concentration 1000.0 nM
[22] = test system: Hepatocyte growth factor receptor (Homo sapiens), P08581 [Y1235D]; details: Compound concentration 1000.0 nM
[23] = target: Glycogen synthase kinase-3 alpha (Homo sapiens) (UniProt P49840); details: Compound concentration 1000.0 nM
[24] = target: Serine/threonine-protein kinase N2 (Homo sapiens) (UniProt Q16513); details: Compound concentration 1000.0 nM
[25] = test system: Epidermal growth factor receptor (Homo sapiens), P00533 [G719S]; details: Compound concentration 1000.0 nM
[26] = target: Phosphatidylinositol 4,5-bisphosphate 3-kinase catalytic subunit delta isoform (Homo sapiens) (UniProt O00329); details: Compound concentration 1000.0 nM
[27] = target: Protein kinase C epsilon type (Homo sapiens) (UniProt Q02156); details: Compound concentration 1000.0 nM
[28] = target: Vascular endothelial growth factor receptor 1 (Homo sapiens) (UniProt P17948); details: Compound concentration 1000.0 nM
[29] = target: Serine/threonine-protein kinase tousled-like 1 (Homo sapiens) (UniProt Q9UKI8); details: Compound concentration 1000.0 nM
[30] = target: Dual specificity mitogen-activated protein kinase kinase 7 (Homo sapiens) (UniProt O14733); details: Compound concentration 1000.0 nM
[31] = target: Serine/threonine-protein kinase N1 (Homo sapiens) (UniProt Q16512); details: Compound concentration 1000.0 nM
[32] = target: Mitogen-activated protein kinase kinase kinase 20 (Homo sapiens) (UniProt Q9NYL2); details: Compound concentration 1000.0 nM
[33] = target: Atypical kinase COQ8A, mitochondrial (Homo sapiens) (UniProt Q8NI60); details: Compound concentration 1000.0 nM
[34] = target: Mitogen-activated protein kinase kinase kinase 1 (Homo sapiens) (UniProt Q13233); details: Compound concentration 1000.0 nM
[35] = target: Non-receptor tyrosine-protein kinase TYK2 (Homo sapiens) (UniProt P29597); details: Compound concentration 1000.0 nM
[36] = target: Serine/threonine-protein kinase Nek1 (Homo sapiens) (UniProt Q96PY6); details: Compound concentration 1000.0 nM
[37] = target: RAC-beta serine/threonine-protein kinase (Homo sapiens) (UniProt P31751); details: Compound concentration 1000.0 nM
[38] = target: Phosphatidylinositol 4-phosphate 3-kinase C2 domain-containing subunit beta (Homo sapiens) (UniProt O00750); details: Compound concentration 1000.0 nM
[39] = target: Tyrosine-protein kinase Mer (Homo sapiens) (UniProt Q12866); details: Compound concentration 1000.0 nM
[40] = target: cGMP-dependent protein kinase 2 (Homo sapiens) (UniProt Q13237); details: Compound concentration 1000.0 nM
[41] = target: Serine/threonine-protein kinase Nek7 (Homo sapiens) (UniProt Q8TDX7); details: Compound concentration 1000.0 nM
[42] = target: Calcium/calmodulin-dependent protein kinase type II subunit beta (Homo sapiens) (UniProt Q13554); details: Compound concentration 1000.0 nM
[43] = target: Bone morphogenetic protein receptor type-2 (Homo sapiens) (UniProt Q13873); details: Compound concentration 1000.0 nM
[44] = target: Serine/threonine-protein kinase PRP4 homolog (Homo sapiens) (UniProt Q13523); details: Compound concentration 1000.0 nM
[45] = target: MAP kinase-interacting serine/threonine-protein kinase 2 (Homo sapiens) (UniProt Q9HBH9); details: Compound concentration 1000.0 nM

Tyrosine-protein kinase Mer (Homo sapiens), sequence (Q12866 whole entry): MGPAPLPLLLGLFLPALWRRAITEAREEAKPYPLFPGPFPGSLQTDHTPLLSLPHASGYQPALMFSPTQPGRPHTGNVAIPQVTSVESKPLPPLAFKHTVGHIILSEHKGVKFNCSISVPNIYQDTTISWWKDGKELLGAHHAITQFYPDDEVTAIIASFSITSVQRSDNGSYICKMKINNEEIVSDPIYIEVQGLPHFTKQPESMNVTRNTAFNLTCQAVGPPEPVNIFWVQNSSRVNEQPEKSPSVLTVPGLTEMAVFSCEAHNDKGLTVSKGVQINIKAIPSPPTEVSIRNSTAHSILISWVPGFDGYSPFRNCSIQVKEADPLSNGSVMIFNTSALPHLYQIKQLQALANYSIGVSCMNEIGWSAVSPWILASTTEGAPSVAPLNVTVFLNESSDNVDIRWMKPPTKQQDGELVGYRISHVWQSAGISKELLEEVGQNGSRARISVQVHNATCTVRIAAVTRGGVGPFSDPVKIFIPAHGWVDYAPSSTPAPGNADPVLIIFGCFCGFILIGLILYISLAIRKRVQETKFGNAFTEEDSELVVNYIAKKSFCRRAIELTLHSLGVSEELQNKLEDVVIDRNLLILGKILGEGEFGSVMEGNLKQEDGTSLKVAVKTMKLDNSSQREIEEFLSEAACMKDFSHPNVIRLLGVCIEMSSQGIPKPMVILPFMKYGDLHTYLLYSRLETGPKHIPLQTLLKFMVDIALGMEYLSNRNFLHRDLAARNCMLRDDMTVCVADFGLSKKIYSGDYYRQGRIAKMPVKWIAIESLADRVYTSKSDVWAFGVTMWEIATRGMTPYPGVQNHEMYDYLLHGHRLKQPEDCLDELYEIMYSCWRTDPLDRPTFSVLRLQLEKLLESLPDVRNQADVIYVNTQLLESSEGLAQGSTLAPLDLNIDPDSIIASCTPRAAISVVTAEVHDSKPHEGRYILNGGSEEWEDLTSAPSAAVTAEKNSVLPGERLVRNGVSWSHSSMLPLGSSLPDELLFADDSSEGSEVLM
Serine/threonine-protein kinase Nek7 (Homo sapiens), sequence (Q8TDX7 whole entry, looked up): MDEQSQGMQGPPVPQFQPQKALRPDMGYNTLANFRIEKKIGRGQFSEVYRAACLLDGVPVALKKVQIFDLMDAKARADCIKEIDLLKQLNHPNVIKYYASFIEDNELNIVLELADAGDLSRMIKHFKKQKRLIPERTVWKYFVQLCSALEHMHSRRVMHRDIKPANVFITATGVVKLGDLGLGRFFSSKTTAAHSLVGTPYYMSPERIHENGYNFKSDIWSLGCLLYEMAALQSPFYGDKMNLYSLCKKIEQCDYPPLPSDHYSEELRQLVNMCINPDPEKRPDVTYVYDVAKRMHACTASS
Cyclin-dependent kinase 4 (Homo sapiens), sequence (P11802 whole entry): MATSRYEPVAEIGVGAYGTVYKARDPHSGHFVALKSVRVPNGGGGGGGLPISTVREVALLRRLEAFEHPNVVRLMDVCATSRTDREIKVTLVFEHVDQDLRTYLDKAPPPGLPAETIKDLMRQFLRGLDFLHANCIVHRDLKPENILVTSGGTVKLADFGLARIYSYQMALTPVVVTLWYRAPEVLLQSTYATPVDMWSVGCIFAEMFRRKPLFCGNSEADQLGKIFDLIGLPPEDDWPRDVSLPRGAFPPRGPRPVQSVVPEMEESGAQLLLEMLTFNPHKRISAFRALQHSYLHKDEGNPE
Serine/threonine-protein kinase MRCK gamma (Homo sapiens), sequence (Q6DT37 whole entry): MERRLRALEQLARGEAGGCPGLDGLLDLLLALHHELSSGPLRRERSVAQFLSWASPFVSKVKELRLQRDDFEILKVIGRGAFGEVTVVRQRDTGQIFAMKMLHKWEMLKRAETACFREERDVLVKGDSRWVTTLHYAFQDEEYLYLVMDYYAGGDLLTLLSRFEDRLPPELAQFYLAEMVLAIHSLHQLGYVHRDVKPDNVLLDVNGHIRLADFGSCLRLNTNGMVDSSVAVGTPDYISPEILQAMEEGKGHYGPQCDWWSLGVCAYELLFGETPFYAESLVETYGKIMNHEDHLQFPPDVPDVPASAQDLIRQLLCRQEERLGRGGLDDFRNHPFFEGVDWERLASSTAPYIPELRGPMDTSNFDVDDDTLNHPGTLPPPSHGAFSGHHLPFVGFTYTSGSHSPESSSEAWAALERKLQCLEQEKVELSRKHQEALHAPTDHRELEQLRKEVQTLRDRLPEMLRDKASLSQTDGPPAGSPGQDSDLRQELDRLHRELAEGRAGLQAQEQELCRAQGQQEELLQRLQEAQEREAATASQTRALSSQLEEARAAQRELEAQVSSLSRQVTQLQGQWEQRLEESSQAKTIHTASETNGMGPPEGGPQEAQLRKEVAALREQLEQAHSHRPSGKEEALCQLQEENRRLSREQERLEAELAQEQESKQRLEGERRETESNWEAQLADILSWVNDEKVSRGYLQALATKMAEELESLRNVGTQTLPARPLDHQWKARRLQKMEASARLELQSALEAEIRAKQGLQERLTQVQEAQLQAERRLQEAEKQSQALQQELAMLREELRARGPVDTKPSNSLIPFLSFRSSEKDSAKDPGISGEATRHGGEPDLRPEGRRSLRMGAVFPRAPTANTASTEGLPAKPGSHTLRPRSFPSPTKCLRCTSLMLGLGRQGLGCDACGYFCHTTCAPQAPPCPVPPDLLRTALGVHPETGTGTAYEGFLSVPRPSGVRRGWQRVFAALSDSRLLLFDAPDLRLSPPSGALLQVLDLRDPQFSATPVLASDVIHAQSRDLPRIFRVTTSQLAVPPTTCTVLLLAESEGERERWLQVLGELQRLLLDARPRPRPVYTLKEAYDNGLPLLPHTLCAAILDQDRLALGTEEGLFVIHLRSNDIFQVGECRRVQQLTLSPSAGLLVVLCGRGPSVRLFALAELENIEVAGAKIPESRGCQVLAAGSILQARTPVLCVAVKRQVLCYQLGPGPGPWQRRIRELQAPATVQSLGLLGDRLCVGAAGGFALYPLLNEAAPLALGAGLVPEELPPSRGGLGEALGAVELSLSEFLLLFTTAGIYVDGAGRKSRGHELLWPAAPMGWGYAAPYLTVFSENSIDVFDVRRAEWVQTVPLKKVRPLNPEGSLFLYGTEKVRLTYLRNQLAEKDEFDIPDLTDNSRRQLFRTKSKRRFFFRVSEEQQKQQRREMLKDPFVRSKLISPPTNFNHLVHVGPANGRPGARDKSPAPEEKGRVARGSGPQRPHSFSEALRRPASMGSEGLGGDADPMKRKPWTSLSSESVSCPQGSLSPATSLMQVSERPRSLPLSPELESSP
Phosphatidylinositol 4,5-bisphosphate 3-kinase catalytic subunit delta isoform (Homo sapiens), sequence (O00329 whole entry, canonical isoform): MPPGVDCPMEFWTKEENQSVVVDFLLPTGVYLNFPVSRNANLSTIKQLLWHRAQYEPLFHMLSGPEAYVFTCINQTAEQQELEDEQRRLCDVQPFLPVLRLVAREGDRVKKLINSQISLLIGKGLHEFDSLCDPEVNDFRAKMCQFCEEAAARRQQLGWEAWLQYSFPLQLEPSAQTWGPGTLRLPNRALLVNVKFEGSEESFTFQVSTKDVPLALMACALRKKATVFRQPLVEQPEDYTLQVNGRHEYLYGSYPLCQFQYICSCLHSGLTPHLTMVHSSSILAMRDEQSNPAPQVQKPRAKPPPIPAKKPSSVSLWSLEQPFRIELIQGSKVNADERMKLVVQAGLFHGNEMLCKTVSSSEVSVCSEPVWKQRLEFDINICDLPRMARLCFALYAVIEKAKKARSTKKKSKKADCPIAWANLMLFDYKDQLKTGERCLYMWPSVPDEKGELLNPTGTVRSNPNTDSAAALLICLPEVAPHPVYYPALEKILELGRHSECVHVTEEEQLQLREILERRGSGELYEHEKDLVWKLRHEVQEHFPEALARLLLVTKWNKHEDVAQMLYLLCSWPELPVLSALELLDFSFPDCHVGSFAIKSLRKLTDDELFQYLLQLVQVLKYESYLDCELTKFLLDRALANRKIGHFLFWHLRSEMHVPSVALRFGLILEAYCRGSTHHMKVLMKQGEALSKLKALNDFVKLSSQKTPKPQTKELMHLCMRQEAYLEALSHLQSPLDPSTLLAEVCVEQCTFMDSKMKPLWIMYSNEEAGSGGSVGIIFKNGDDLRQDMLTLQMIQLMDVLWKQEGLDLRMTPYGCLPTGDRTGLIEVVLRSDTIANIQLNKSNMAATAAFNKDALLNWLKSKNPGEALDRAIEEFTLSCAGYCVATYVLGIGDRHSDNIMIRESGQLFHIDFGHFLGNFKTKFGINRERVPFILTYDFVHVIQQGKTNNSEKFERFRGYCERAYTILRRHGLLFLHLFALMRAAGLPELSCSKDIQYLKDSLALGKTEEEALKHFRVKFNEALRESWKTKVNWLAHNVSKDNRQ
NUAK family SNF1-like kinase 1 (Homo sapiens), sequence (O60285 whole entry): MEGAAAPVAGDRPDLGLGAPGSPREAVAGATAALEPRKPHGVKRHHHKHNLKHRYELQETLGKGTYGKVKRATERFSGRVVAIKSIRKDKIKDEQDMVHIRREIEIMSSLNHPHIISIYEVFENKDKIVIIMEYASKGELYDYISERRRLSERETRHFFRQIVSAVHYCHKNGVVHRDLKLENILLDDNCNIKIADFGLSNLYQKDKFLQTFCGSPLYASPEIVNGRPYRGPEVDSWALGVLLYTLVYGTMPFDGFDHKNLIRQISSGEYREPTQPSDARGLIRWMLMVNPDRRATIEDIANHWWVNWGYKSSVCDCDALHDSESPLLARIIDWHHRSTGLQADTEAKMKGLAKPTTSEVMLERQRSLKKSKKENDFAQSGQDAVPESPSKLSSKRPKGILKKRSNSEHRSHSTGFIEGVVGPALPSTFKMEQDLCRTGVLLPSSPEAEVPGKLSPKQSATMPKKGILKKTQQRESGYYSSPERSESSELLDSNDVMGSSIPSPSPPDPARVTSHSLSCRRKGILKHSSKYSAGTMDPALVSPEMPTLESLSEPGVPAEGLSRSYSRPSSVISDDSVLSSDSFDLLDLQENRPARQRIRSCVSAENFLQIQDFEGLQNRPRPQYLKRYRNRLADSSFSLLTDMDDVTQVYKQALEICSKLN

`Nc1cnc(N2CCc3cc(S(=O)(=O)Nc4c(F)cc(Cl)cc4F)cc(N4CCCC4=O)c32)nc1` was tested, and the residual activity [1] was 63%, the residual activity [2] was 100% and the residual activity [3] was 80%. It also gave an inhibition [4] of 0.94%, a residual activity [5] of 100% and a residual activity [6] of 89%. The residual activity [7] was 88%, the residual activity [8] was 81% and the residual activity [9] was 100%. For the same compound, the residual activity [10] was 97%, the residual activity [11] was 100% and the residual activity [12] was 99%. For the same compound, the residual activity [13] was 78%, the residual activity [14] was 100% and the residual activity [15] was 86%. It also gave a residual activity [16] of 100%, a residual activity [17] of 100% and a residual activity [18] of 100%. It also gave a residual activity [19] of 94%, a residual activity [20] of 96% and a residual activity [21] of 100%. It also gave a residual activity [22] of 69%, a residual activity [23] of 100% and a residual activity [24] of 100%. The residual activity [25] was 75%, the residual activity [26] was 88% and the residual activity [27] was 100%. For the same compound, the residual activity [28] was 93%, the residual activity [29] was 100% and the residual activity [30] was 100%. The residual activity [31] was 95%, the residual activity [32] was 95% and the residual activity [33] was 100%. The residual activity [34] was 100%, the residual activity [35] was 100% and the residual activity [36] was 46%. It also gave a residual activity [37] of 100%, a residual activity [38] of 83% and a residual activity [39] of 100%. It also gave a residual activity [40] of 84%, a residual activity [41] of 96% and a residual activity [42] of 100%. It also gave a residual activity [43] of 100%, a residual activity [44] of 76% and a residual activity [45] of 100%.
For `Cn1nc(C(F)(F)F)cc1-c1cnc(N2CCc3cc(S(=O)(=O)Nc4c(F)cc(Cl)cc4F)cc(N4CCCC4=O)c32)nc1` [TP-020], the residual activity [1] was 100%, the residual activity [2] was 100% and the residual activity [3] was 100%. The inhibition [4] was 4.51%, the residual activity [5] was 100% and the residual activity [6] was 88%. For the same compound, the residual activity [7] was 92%, the residual activity [8] was 85% and the residual activity [9] was 100%. The residual activity [10] was 81%, the residual activity [11] was 100% and the residual activity [12] was 93%. For the same compound, the residual activity [13] was 94%, the residual activity [14] was 72% and the residual activity [15] was 87%. For the same compound, the residual activity [16] was 82%, the residual activity [17] was 85% and the residual activity [18] was 77%. The residual activity [19] was 100%, the residual activity [20] was 81% and the residual activity [21] was 89%. The residual activity [22] was 94%, the residual activity [23] was 95% and the residual activity [24] was 82%. The residual activity [25] was 100%, the residual activity [26] was 84% and the residual activity [27] was 96%. For the same compound, the residual activity [28] was 95%, the residual activity [29] was 78% and the residual activity [30] was 98%. It also gave a residual activity [31] of 100%, a residual activity [32] of 98% and a residual activity [33] of 100%. It also gave a residual activity [34] of 70%, a residual activity [35] of 90% and a residual activity [36] of 100%. For the same compound, the residual activity [37] was 100%, the residual activity [38] was 99% and the residual activity [39] was 100%. For the same compound, the residual activity [40] was 90%, the residual activity [41] was 100% and the residual activity [42] was 92%. It also gave a residual activity [43] of 77%, a residual activity [44] of 100% and a residual activity [45] of 94%.
